Results as given in article PMC8708940, “Crossing of the Cystic Barriers of Toxoplasma gondii by the Fluorescent Coumarin Tetra-Cyclopeptide” (Molecules, 2021).

Tests used:
human cells HFF = format: cell-based; settings: human foreskin fibroblasts
Protocol: (§1) All T. gondii strains were maintained by serial passage in an HFF (Human Foreskin Fibroblasts) monolayer under tachyzoite growth conditions in Dulbecco’s modified Eagle medium (DMEM; Invitrogen) supplemented with 10% (vol/vol) fetal bovine serum (FBS; Invitrogen), 4 mM glutamine, 500 U/mL penicillin, 250 µg/mL streptomycin at 37 °C and 25 mM Hepes buffer (Invitrogen) in 5% CO2.

[1] = tested on: T. gondii RH strain tachyzoite; format: cell-based, Toxoplasma gondii; settings: intracellular growth of RH strain tachyzoite in HFF
Text: The parasite strains used in this study are the following: the T. gondii type I RH strain that has lost the ability to complete cyst conversion, the T. gondii type II Prugniaud (Pru) strain that is capable of robust bradyzoite differentiation, the T. gondii type II Pru-Δhxgprt-A7 strain that expresses green fluorescent protein (GFP), the Pru-Δku80 strain [36, 37], and the RH Tg hdac3 T99A strain (previously obtained in our laboratory).
as §1

[2] = tested on: Ex vivo T. gondii cysts (PRU strain); experiment: Cyst and bradyzoite penetration observed by fluorescence microscopy; format: cell-based, Toxoplasma gondii; settings: 37 °C, exposure time 100 ms
Text: To focus on the ability of the cyclic tetrapeptide moiety to transport compounds through the cyst wall, we began our investigation by monitoring the transport of the poorly cell-permeable fluorochrome 3 (Figure 2) by optical microscopy.
To ensure that the fluorescent compound was incorporated to the parasite cell, bradyzoites were released from treated cysts (Figure 3b).
Cysts were isolated from the brains of mice chronically infected with the Pru-Δhxgprt-A7 or the Pru strains for at least 6 weeks, either using the Percoll gradient method as described previously or directly harvesting the cysts using a 10-μL pipet for the dye experimentation in order to prevent deterioration of the cyst wall for the permeability studies.
Images were acquired with a Axioplan 2 fluorescence microscope (Carl Zeiss Microimaging, Thornwood, NY, USA) and processed with the ZEN software (Zeiss).

CCN(CC)c1ccc2cc(-n3cc(C[C@]4(C)NC(=O)[C@H](CCCCCC(=O)[C@@H](C)O)NC(=O)[C@H]5CCCN5C(=O)[C@H](Cc5ccccc5)NC4=O)nn3)c(=O)oc2c1 [compound 1]
EC50 (human cells HFF): 280 ± 20 nM
EC50 [1]: 43 ± 2.2 nM
Fluorescence of isolated cysts (penetration and accumulation in the cyst) ([2]; 200 nM to 3.7 µM, 3, 22 and 96 h): increasing fluorescence was observed
Labeling of bradyzoites released from treated cysts ([2]; 3.7 µM for 3 h, bradyzoites released from the cyst): clearly show labeling of these bradyzoites

C=CCC[C@@H]1NC(=O)[C@H]2CCCN2C(=O)[C@H](Cc2ccccc2)NC(=O)[C@](C)(Cc2cn(-c3cc4ccc(N(CC)CC)cc4oc3=O)nn2)NC1=O [compound 2]
Fluorescent labeling of isolated cysts (cyst penetration) ([2]; isolated ex vivo cysts, 1 µM, 24 h, PBS washing): labeled them with a high intensity
